The results in this text go back to patent US10028942B2 (priority 2013, dated 2018).

This test has as its target T1, DLK (Homo sapiens, UniProt Q12852).
T1 sequence (Q12852 1-520): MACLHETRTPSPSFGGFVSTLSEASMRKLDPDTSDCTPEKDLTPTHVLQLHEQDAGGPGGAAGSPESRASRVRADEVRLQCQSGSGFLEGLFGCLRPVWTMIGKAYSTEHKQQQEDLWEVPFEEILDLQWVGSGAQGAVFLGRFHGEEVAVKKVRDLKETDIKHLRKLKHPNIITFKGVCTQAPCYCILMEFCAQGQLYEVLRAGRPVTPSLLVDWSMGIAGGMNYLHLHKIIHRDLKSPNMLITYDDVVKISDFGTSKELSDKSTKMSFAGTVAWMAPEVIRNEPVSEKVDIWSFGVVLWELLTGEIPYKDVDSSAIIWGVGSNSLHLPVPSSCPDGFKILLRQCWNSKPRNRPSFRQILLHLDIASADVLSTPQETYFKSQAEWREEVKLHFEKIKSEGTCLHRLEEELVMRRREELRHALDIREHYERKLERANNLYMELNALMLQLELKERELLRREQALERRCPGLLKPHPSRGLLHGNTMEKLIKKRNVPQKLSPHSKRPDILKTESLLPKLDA
To be noted: read-out: DLK (Ki) μM; TR-FRET; 5 nM GST-tagged DLK (catalytic domain aa 1-520), 40 nM HIS-MKK4 K131M substrate, 30 μM ATP, 60 minutes.

Each structure is given as a SMILES string.

As a reminder, the Ki is a measure of affinity in units of concentration, obtained from inhibition or displacement. Regarding `Nc1ncc(-c2cc([C@H]3[C@@H]4CN(C5COC5)C[C@@H]43)n(C3CCC3)n2)cc1C1CC1` [Compound 153, 5-(1-cyclobutyl-5-((1R,5S,6r)-3-(oxe-tan-3-yl)-3-azabicyclo[3.1.0]hexan-6-yl)-1H-pyrazol-3-yl)-3-cyclopropyl-pyridin-2-amine], the Ki is 0.011 µM.

On to `Nc1ncc(-c2cc([C@H]3[C@@H]4CN(C5COC5)C[C@@H]43)n(CC3CC3)n2)cc1Cl` [Compound 154, 3-chloro-5-(1-(cyclopropylmethyl)-5-((1R,5S,6r)-3-(oxetan-3-yl)-3-azabicyclo[3.1.0]hexan-6-yl)-1H-pyrazol-3-yl)pyridin-2-amine], for which the Ki is 0.025 µM.

Turning to `CS(=O)(=O)c1cc(-c2cc([C@H]3[C@@H]4CN(C5COC5)C[C@@H]43)n(C3CCCC3)n2)cnc1N` [Compound 155, 5-(1-cyclopentyl-5-((1R,5S,6r)-3-(oxe-tan-3-yl)-3-azabicyclo[3.1.0]hexan-6-yl)-1H-pyrazol-3-yl)-3-(methyl-sulfonyl)pyridin-2-amine], the Ki amounted to 0.3 µM.

For the compound `CC(C)Oc1cc(-c2cc([C@H]3[C@@H]4CN(C5COC5)C[C@@H]43)n(C3CCCC3)n2)cnc1N` [Compound 156, 5-(1-cyclopentyl-5-((1R,5S,6r)-3-(oxe-tan-3-yl)-3-azabicyclo[3.1.0]hexan-6-yl)-1H-pyrazol-3-yl)-3-isopropoxy-pyridin-2-amine], the Ki is 0.032 µM.

As for `COc1cc(-c2cc([C@H]3[C@@H]4CN(C5COC5)C[C@@H]43)n(C3CCCC3)n2)cnc1N` [Compound 157, 5-(1-cyclopentyl-5-((1R,5S,6r)-3-(oxe-tan-3-yl)-3-azabicyclo[3.1.0]hexan-6-yl)-1H-pyrazol-3-yl)-3-methoxy-pyridin-2-amine], the Ki is 0.035 µM.

As for `CC(C)n1nc(-c2cnc(N)c(C(F)F)c2)cc1[C@H]1[C@@H]2CN(C3COC3)C[C@@H]21` [Compound 158, 3-(difluoromethyl)-5-(1-isopropyl-5-((1R,5S,6r)-3-(oxetan-3-yl)-3-azabi-cyclo[3.1.0]hexan-6-yl)-1H-pyrazol-3-yl)pyridin-2-amine], the Ki came to 0.035 µM.

As to `Nc1ncc(-c2cc([C@H]3[C@@H]4CN(C5COC5)C[C@@H]43)n(CC3CCC3)n2)cc1C(F)(F)F` [Compound 160, 5-(1-(cyclobutylmethyl)-5-((1R,5S,6r)-3-(oxetan-3-yl)-3-azabicyclo[3.1.0]hexan-6-yl)-1H-pyrazol-3-yl)-3-(tri-fluoromethyl)pyridin-2-amine], the Ki was determined as 0.0081 µM.

Turning to `Nc1ncc(-c2cc([C@H]3[C@@H]4CN(C5COC5)C[C@@H]43)n(CC3CC3)n2)cc1C1CC1` [Compound 161, 3-cyclopropyl-5-(1-(cyclopropylmeth-yl)-5-((1R,5S,6r)-3-(oxetan-3-yl)-3-azabicyclo[3.1.0]hexan-6-yl)-1H-pyrazol-3-yl)pyridin-2-amine], the Ki amounted to 0.021 µM.

As for `Nc1ncc(-c2cc([C@H]3[C@@H]4CN(C5COC5)C[C@@H]43)n(CC3CCC3)n2)cc1C1CC1` [Compound 162, 5-(1-(cyclobutylmethyl)-5-((1R,5S,6r)-3-(oxetan-3-yl)-3-azabicyclo[3.1.0]hexan-6-yl)-1H-pyrazol-3-yl)-3-cyclopropylpyridin-2-amine], the Ki came to 0.066 µM.

In the case of `Nc1ncc(-c2cc([C@H]3[C@@H]4CN(C5COC5)C[C@@H]43)n(C3CCC3)n2)cc1OC(F)(F)F` [Compound 163, 5-(1-cyclobutyl-5-((1R,5S,6r)-3-(oxe-tan-3-yl)-3-azabicyclo[3.1.0]hexan-6-yl)-1H-pyrazol-3-yl)-3-(trifluorometh-oxy)pyridin-2-amine], the inhibition constant Ki was determined as 0.013 µM.

For the compound `Nc1ncc(-c2cc([C@H]3[C@@H]4CN(C5COC5)C[C@@H]43)n(CC3CCC3)n2)cc1OC(F)F` [Compound 164, 5-(1-(cyclobutylmethyl)-5-((1R,5S,6r)-3-(oxetan-3-yl)-3-azabicyclo[3.1.0]hexan-6-yl)-1H-pyrazol-3-yl)-3-(di-fluoromethoxy)pyridin-2-amine], the Ki is 0.013 µM.

For `CC(C)n1nc(-c2cnc(N)c(OC(F)(F)F)c2)cc1[C@H]1[C@@H]2CN(C3COC3)C[C@@H]21` [Compound 165, 5-(1-isopropyl-5-((1R,5S,6r)-3-(oxe-tan-3-yl)-3-azabicyclo[3.1.0]hexan-6-yl)-1H-pyrazol-3-yl)-3-(trifluorometh-oxy)pyridin-2-amine], the Ki came out at 0.0019 µM.

For `Nc1ncc(-c2cc([C@H]3[C@@H]4CN(C5COC5)C[C@@H]43)n(C3CCCC3)n2)cc1OC(F)(F)F` [Compound 166, 5-(1-cyclopentyl-5-((1R,5S,6r)-3-(oxe-tan-3-yl)-3-azabicyclo[3.1.0]hexan-6-yl)-1H-pyrazol-3-yl)-3-(trifluoro-methoxy)pyridin-2-amine], the Ki was 0.0047 µM.

For `CC(C)(C)n1nc(-c2cnc(N)c(C(F)(F)F)c2)cc1[C@H]1[C@@H]2CN(C3COC3)C[C@@H]21` [Compound 167, 5-(1-(tert-butyl)-5-((1R,5S,6r)-3-(oxe-tan-3-yl)-3-azabicyclo[3.1.0]hexan-6-yl)-1H-pyrazol-3-yl)-3-(trifluorometh-yl)pyridin-2-amine], the Ki worked out at 0.027 µM.

`Nc1ncc(-c2cc([C@H]3[C@@H]4CN(C5COC5)C[C@@H]43)n(C3CC3)n2)cc1C(F)(F)F` [Compound 168, 5-(1-cyclopropyl-5-((1R,5S,6r)-3-(oxe-tan-3-yl)-3-azabicyclo[3.1.0]hexan-6-yl)-1H-pyrazol-3-yl)-3-(trifluoro-methyl)pyridin-2-amine]: the Ki amounted to 0.0047 µM.

In the case of `Nc1ncc(-c2cc([C@H]3[C@@H]4CN(C5COC5)C[C@@H]43)n(CC3CC3)n2)cc1C(F)F` [Compound 169, 5-(1-(cyclopropylmethyl)-5-((1R,5S,6r)-3-(oxetan-3-yl)-3-azabicyclo[3.1.0]hexan-6-yl)-1H-pyrazol-3-yl)-3-(di-fluoromethyl)pyridin-2-amine], the Ki was determined as 0.041 µM.

For the compound `Nc1ncc(-c2cc([C@H]3[C@@H]4CN(C5COC5)C[C@@H]43)n(C3CC3)n2)cc1C(F)F` [Compound 170, 5-(1-cyclopropyl-5-((1R,5S,6r)-3-(oxe-tan-3-yl)-3-azabicyclo[3.1.0]hexan-6-yl)-1H-pyrazol-3-yl)-3-(difluoro-methyl)pyridin-2-amine], the Ki was 0.012 µM.

Regarding `Nc1ncc(-c2cc([C@H]3[C@@H]4CN(C5COC5)C[C@@H]43)n(C3CCCC3)n2)cc1C(F)F` [Compound 171, 5-(1-cyclopentyl-5-((1R,5S,6r)-3-(oxe-tan-3-yl)-3-azabicyclo[3.1.0]hexan-6-yl)-1H-pyrazol-3-yl)-3-(difluoro-methyl)pyridin-2-amine], the Ki was found to be 0.016 µM.

With `Nc1ncc(-c2cc([C@H]3[C@@H]4CN(C5COC5)C[C@@H]43)n(CC3CC3)n2)cc1OC(F)F` [Compound 173, 5-(1-(cyclopropylmethyl)-5-((1R,5S,6r)-3-(oxetan-3-yl)-3-azabicyclo[3.1.0]hexan-6-yl)-1H-pyrazol-3-yl)-3-(difluoromethoxy)pyridin-2-amine], the Ki was 0.0039 µM.

`Nc1ncc(-c2cc([C@H]3[C@@H]4CN(C5COC5)C[C@@H]43)n(CC(F)(F)F)n2)cc1C(F)(F)F` [Compound 174, 5-(5-((1R,5S,6r)-3-(oxetan-3-yl)-3-azabicyclo[3.1.0]hexan-6-yl)-1-(2,2,2-trifluoroethyl)-1H-pyrazol-3-yl)-3-(trifluoromethyl)pyridin-2-amine]: the Ki came out at 0.0016 µM.
